These results are taken from ChEMBL document CHEMBL5252515, “Discovery of 6-Amino-2-{[(1S)-1-methylbutyl]oxy}-9-[5-(1-piperidinyl)pentyl]-7,9-dihydro-8H-purin-8-one (GSK2245035), a Highly Potent and Selective Intranasal Toll-Like Receptor 7 Agonist for the Treatment of Asthma” (J Med Chem, 2016).

pEC50: −log10 of the molar value. Values after ≈ are worked out from the molar mass of the structure shown. Active and inactive are the calls of the source. The calls are words filed in the database; no cut-off is given here.

A short description of data set [1]: Systemic clearance in rat. Type of data set: ADME. The following applies: in vivo.
Data set [2] has as its system PBMC. Put plainly: Immunomodulatory activity in human PBMC assessed as reduction in timothy grass induced IL-13 level after 6 days. Type of data set: functional, cell-based. The following applies: dose 0.01-10000 nM, time 6.0 day.
Data set [3] addresses T1, Toll-like receptor 7 (Homo sapiens, UniProt Q9NYK1).
T1 sequence (Q9NYK1 whole entry): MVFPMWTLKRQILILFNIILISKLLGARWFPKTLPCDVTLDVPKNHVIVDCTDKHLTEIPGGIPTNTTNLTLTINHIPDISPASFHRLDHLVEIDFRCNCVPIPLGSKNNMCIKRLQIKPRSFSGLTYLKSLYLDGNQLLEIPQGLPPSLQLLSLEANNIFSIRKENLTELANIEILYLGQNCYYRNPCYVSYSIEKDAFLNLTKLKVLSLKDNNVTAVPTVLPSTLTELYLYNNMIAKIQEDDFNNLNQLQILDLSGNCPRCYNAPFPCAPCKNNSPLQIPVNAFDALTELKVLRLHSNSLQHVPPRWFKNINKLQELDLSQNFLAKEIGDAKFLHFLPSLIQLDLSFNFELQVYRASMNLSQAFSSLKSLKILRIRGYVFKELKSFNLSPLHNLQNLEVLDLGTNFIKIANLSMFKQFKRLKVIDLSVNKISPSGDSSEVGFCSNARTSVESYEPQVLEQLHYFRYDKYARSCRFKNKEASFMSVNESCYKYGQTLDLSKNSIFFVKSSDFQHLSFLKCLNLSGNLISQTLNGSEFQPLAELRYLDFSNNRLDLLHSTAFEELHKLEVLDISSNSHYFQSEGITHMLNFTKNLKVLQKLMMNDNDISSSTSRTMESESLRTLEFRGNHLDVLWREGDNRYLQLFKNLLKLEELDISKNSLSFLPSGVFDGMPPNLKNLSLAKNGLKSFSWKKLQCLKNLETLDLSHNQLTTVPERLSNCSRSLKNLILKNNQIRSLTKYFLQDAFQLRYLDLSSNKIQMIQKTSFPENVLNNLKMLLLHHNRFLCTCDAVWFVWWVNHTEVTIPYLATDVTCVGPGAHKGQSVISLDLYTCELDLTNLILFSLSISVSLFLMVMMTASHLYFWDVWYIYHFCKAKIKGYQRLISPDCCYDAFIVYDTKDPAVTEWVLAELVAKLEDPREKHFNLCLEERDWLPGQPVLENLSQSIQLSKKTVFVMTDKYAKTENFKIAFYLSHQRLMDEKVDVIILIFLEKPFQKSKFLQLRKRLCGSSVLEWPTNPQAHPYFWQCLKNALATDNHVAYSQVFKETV
The data set can be described thus: Agonist activity at TLR7 in human whole blood assessed as induction of IFN-gamma production after 20 hrs by electrochemiluminescence assay. Type of data set: tissue-based.

Data set [4] relates to Cynomolgus monkey. The data set can be described thus: Induction of plasma cytokines in cynomolgus monkey. The following applies: Macaca fascicularis. It is filed as functional, organism-based.
The target in data set [5] is T1, Toll-like receptor 7. Put plainly: Agonist activity at TLR7 in human whole blood assessed as induction of TNFalpha production after 20 hrs by electrochemiluminescence assay. It is filed as tissue-based.
Data set [6] is described as follows: Tmax in cynomolgus monkey after intranasal administration. It is filed as ADME, Macaca fascicularis. The following applies: in vivo, inhaled or intranasal.
A short description of data set [7]: Selectivity ratio of pEC50 for agonist activity at TLR7 in human whole blood to pEC50 for agonist activity at TLR7 in BALB/c mouse splenocytes. Type of data set: cell-based.
Data set [8] is described as follows: Oral bioavailability in rat. The following applies: in vivo. It is filed as ADME, organism-based.
Data set [9] has as its target T2, Toll-like receptor 7 (Macaca fascicularis) (UniProt B3Y652).
T2 sequence (whole entry): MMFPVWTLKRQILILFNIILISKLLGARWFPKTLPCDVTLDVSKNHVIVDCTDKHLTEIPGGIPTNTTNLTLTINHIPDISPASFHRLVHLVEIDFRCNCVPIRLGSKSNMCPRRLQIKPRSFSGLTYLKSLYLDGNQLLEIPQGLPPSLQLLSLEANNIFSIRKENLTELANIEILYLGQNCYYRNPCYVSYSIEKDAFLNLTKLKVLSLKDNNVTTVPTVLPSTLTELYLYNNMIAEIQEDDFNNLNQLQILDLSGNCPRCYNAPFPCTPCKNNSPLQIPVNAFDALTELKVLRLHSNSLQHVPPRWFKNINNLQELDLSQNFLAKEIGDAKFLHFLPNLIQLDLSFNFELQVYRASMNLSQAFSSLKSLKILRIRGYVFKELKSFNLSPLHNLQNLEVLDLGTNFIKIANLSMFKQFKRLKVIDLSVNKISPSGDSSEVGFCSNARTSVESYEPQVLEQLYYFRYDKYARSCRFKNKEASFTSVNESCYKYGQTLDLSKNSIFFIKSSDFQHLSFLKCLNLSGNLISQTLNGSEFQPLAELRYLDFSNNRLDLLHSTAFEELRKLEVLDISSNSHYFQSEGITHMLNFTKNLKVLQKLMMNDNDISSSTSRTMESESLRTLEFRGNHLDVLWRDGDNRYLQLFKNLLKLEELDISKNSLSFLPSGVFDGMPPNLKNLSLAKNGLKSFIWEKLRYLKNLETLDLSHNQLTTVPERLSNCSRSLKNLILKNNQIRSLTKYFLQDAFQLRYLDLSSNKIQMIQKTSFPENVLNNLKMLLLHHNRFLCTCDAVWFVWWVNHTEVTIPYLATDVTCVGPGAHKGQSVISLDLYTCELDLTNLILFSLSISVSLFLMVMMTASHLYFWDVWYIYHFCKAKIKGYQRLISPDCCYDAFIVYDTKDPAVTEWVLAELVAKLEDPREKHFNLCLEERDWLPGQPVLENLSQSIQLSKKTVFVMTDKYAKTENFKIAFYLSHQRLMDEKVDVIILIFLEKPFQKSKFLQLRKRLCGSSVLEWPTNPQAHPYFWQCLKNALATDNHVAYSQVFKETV
The data set can be described thus: In vivo target occupancy at TLR7 in cynomolgus monkey assessed as fold increase in OAS3 mRNA expression in nasal scrape at 3 ng/kg administered intranasally incubated for 24 hrs by TaqMan analysis (reference value: 0.9). Type of data set: functional. Background: Real-time PCR tracks product formation cycle by cycle.

Data set [10] can be described thus: Solubility of the compound at pH-7. Type of data set: physicochemical.
Data set [11] in a line: Toxicity in mouse assessed as dermal irritancy at 1000 ug/ml administered intranasally after 4 hrs. The following applies: in vivo, inhaled_or_intranasal, dose 1000 µg/ml.
The subject of data set [12] is PBMC. The data set can be described thus: Immunomodulatory activity in human PBMC assessed as IFNalpha production incubated for 6 days in presence of allergen timothy grass. The following applies: time 6.0 day. Type of data set: functional, cell-based.
The test system of data set [13] is Mus musculus. Put plainly: Increase in IP-10 level in intranasally dosed BALB/c mouse nasal lavage after 6 hrs. Type of data set: functional, organism-based.
The target in data set [14] is T3, Toll-like receptor 7 (Macaca fascicularis, UniProt B3Y652).
T3 sequence (B3Y652 whole entry): T2 sequence (whole entry)
The data set can be described thus: Agonist activity at TLR7 in cynomolgus monkey whole blood assessed as induction of TNFalpha production. Type of data set: tissue-based.

Data set [15] deals with T1, Toll-like receptor 7. The data set can be described thus: Agonist activity at TLR7 in human whole blood assessed as induction of IL-12p70 production after 20 hrs by electrochemiluminescence assay. Type of data set: tissue-based.
The target in data set [16] is T1, Toll-like receptor 7. The data set can be described thus: Agonist activity at TLR7 in human PBMC assessed as TNF-alpha production after 24 hrs by electrochemiluminescence assay. It is filed as cell-based.
The target in data set [17] is T1, Toll-like receptor 7. Put plainly: Agonist activity at TLR7 (unknown origin) expressed in human U2OS cells assessed as induction of NF-kappaB driven TNFalpha production by luciferase reporter assay. It is filed as cell-based. (In general: In a reporter assay the amount or activity of a reporter protein is the signal.)

What is called clearance is the rate of elimination divided by the concentration. Broadly, the pEC50 is the EC50 on a negative log10 scale, so that one unit is a factor of ten. For orientation: Tmax means the time at which the peak concentration occurs. The term bioavailability denotes dose-corrected exposure relative to a reference, in per cent. By solubility is commonly meant how much of the substance goes into solution per volume. Take `CCC[C@H](C)Oc1nc(N)c2[nH]c(=O)n(CCCCCN3CCCCC3)c2n1` [GSK-2245035]: the clearance in data set [1] was found to be 96 mL/min/kg. Besides, the Activity result in [2] was “Dose-Dependent Effect”; in data set [11], “Non-Toxic”. Further, the pEC50 in [3] was 5.90; in [5], 5.00; in data set [14], 4.80; in data set [15], 7.20; in data set [16], 6.50; in data set [17] it was 5.90. In data set [4], the result was inactive. Besides, in data set [6], the Tmax is ≤ 5 min. For the same compound, the Selectivity ratio in data set [7] is 10. Besides, the bioavailability in [8] was determined as 1%. For the same compound, the fold change (FC) in [9] was found to be 86.3. The solubility in [10] is 11 mg/mL (≈ 28.2 mM). In addition, the outcome in [12] and in data set [13] was Active.
